Calls of active or inactive are those of the source. The rule behind the calls is not given here.
Key:
Mus musculus [1] = species on record: Mus musculus; assay: Immuno-adjuvant activity in E2deltaTM3-immunized BALB/cj mouse assessed as neutralization of HCV H77 genotype 1a pseudotyped virus particle with pooled immune sera at 1 ug/ml; type: functional; details: dose 1 µg/ml
Mus musculus [2] = assay: Immuno-adjuvant activity in E2deltaTM3-immunized BALB/cj mouse assessed as potentiation of antibody response to E1E2 by measuring increase in serum anti-E1E2 IgG level administered subcutaneously as prime injection at 200 ug and 800 ug compound split over the remaining four days to give final dose of 1 mg followed by booster injection at four week intervals on day 28, 56 and 84 and measured at […] post-booster injection on days 34, 62 and 90 by ELISA; type: functional, organism-based

SMILES | Activity (Mus musculus [1]) | Activity (Mus musculus [2])
O=Cc1c(O)cccc1OCc1ccc(C(=O)O)cc1 [TUCARESOL] | 61% | 
CCCCCCCCCCCCCCCCOc1cccc(O)c1C=O | 59% | Active
CCCCCCCCCCCCCCCCOc1ccc(O)c(O)c1C=O | 71% | Active
CCCCCCCCCCCCCCCCOc1cc(O)ccc1C=O | 78% | Active
